From BindingDB's records for doi:10.1021/jm900135r (Washington University, 2009)
Where a SMILES comes first, the peptide text is derived from it. [ ]: non-standard residue; d: D form. ξ: configuration not given here. Ile(3ξ) = CCC(C)[C@H](N)C(=O)O; Thr(3ξ) = CC(O)[C@H](N)C(=O)O

Target: Caspase-8 (Homo sapiens, UniProt Q14790)
Test: Enzyme Inhibition Assay
Experimental: The caspase enzymatic activity was determined by measuring the accumulation of a fluorogenic product. All assays were prepared in 96-well format. Recombinant caspase enzyme was first assayed to determine the optimal concentration for each experiment. Peptide inhibitors with known IC50 values were tested together with the compounds as a control for each caspase assay. […] Compounds were tested in duplicate and IC50 curves were calculated for all inhibitors assayed.

Caspase-8, sequence (Q14790 217-374 limits assumed): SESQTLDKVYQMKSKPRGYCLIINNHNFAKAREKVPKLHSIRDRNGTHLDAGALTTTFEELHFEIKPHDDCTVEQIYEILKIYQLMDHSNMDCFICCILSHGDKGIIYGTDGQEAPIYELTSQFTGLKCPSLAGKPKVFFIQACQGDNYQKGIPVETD
Caspase-8, sequence (Q14790 385-479 limits assumed): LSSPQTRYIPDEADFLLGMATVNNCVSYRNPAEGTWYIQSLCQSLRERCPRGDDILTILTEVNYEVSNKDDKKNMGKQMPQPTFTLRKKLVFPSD

In the case of CCC(C)[C@H](NC(C)=O)C(=O)N[C@@H](CCC(=O)O)C(=O)N[C@H](C(=O)N[C@H](C=O)CC(=O)O)C(C)O (stereo partly drawn) [(4S)-4-{[(1S)-1-{[(2S)-1-carboxy-3-oxopropan-2-yl]carbamoyl}-2-hydroxypropyl]carbamoyl}-4-[(2S)-2-acetamido-3-methylpentanamido]butanoic acid] (Ac-[Ile(3ξ)]E[Thr(3ξ)]D-aldehyde), the IC50 is reported as 4.2 nM.
